Experimental data taken from patent publication US8664243B2, “Sulfonamide compound and crystal thereof” (Asahi Kasei Pharma Corporation, priority 2007, dated 2014).

Key:
Type in all cases: physicochemical
[1] = Hygroscopicity Test 2 (25° C. and 84% RH; free base, salts and salt mixtures); settings: for Appearance / Water content / Purity: 25° C. and 84% RH, dark; for Purity: HPLC
Method: (§1) Hygroscopicity of Compound 1 or the substance in the form of a salt can be evaluated by putting a sample on a glass weighing dish, storing the dish in a dark place for a given period of time in an open state at a temperature of 25 to 40° C. under a humidification condition of about 75 to 94% relative humidity, and then observing or measuring appearance, purity, water content and the like of Compound 1 or the substance in the form of a salt. Increase of water content before and after storage especially serves as an important hygroscopic index. For example, the evaluation is preferably performed after storage conditions of 25° C. and 84% RH. • High performance liquid chromatography apparatus: LC-10A Series (Shimadzu) or Agilent 1100 series (Agilent Technologies) • Solution concentration: 500 μg/ml • Injection: 10 μl • Detector: Ultraviolet absorptiometer (measurement wavelength: 245 nm) • Column: XBridge Shield RP18 5 μm, internal diameter: 4.6 mm, length: 15 cm (Waters) • Column temperature: Constant temperature around 40° C. • Mobile phase A: 20 mmol/l Sodium phosphate buffer (pH 7.0) • Mobile phase B: Acetonitrile • Liquid feeding program: A concentration gradient was formed by changing the mixing ratio of the mobile phase A and the mobile phase B as shown in Table 1. • Flow rate: 1.0 ml/minute • Water content measurement apparatus: AQ-7 (Hiranuma Sangyo) • Sample amount: 5 mg • Anolyte: Aqualyte RS (Sigma-Aldrich) • Catholyte: Aqualyte CN (Sigma-Aldrich) Compound 1 obtained by a method similar to the method described in Example 1 (two kinds of lots), the monohydrochloride obtained by the method described in Example 3, the dihydrochloride, and mixtures of the monohydrochloride and the dihydrochloride at ratios of 9:1, 8:2, 6:4, 4:6 and 2:8 were weighed on a glass weighing dish in an amount of each 40 mg, and each sample was stored in a dark place at 25° C. and 84% RH for 2 to 4 weeks. After the storage, appearance was evaluated by visual inspection. Further, purity was measured under the conditions of Test Example 7, and water content was measured under the conditions of Test Example 8.

[2] = Measurement of water content (coulometric titration method); settings: as prepared, sample 5 mg
Text: For evaluation of purity of Compound 1 or the substance in the form of a salt, the area percentage method based on HPLC is convenient. For evaluation of water content of Compound 1 or the substance in the form of a salt, the volumetric titration method, the coulometric titration method described in Japanese Pharmacopoeia, General Test Methods, “Water Determination”, the loss on drying test and the like can be used. When sample weight is small, the coulometric titration method can be preferably chosen.

[3] = Thermal stability test (sealed glass vial, dark place, 60° C.); settings: for Appearance / Water content / Purity: 60° C., dark, sealed vial; for Purity: HPLC
Method: Thermal stability of Compound 1 or the substance in the form of a salt can be evaluated by, for example, sealing a sample in a glass vial or the like, storing the vial under a severe temperature condition such as 40 to 80° C. in a dark place for a given period of time, and then observing or measuring appearance, purity, water content and the like of Compound 1 or the substance in the form of a salt. Change of purity before and after storage especially serves as an important index of thermal stability. For example, the evaluation is preferably performed under a storage condition of 60° C. • High performance liquid chromatography apparatus: LC-10A Series (Shimadzu) or Agilent 1100 series (Agilent Technologies) • Solution concentration: 500 μg/ml • Injection: 10 μl • Detector: Ultraviolet absorptiometer (measurement wavelength: 245 nm) • Column: XBridge Shield RP18 5 μm, internal diameter: 4.6 mm, length: 15 cm (Waters) • Column temperature: Constant temperature around 40° C. • Mobile phase A: 20 mmol/l Sodium phosphate buffer (pH 7.0) • Mobile phase B: Acetonitrile • Liquid feeding program: A concentration gradient was formed by changing the mixing ratio of the mobile phase A and the mobile phase B as shown in Table 1. • Flow rate: 1.0 ml/minute • Water content measurement apparatus: AQ-7 (Hiranuma Sangyo) • Sample amount: 5 mg • Anolyte: Aqualyte RS (Sigma-Aldrich) • Catholyte: Aqualyte CN (Sigma-Aldrich) The monohydrochloride obtained by the method described in Example 3, the monohydrobromide obtained by the method described in Example 4, and the dihydrochloride as a control were weighed in a glass vial in an amount of 40 mg each, and the glass vial was sealed. Each sample was stored in a dark place at 60° C. for 2 to 4 weeks, and after the storage, appearance was evaluated by visual inspection. Further, purity was measured under the conditions of Test Example 7, and water content was measured under the conditions of Test Example 8.

[4] = Hygroscopicity Test 1 (open glass weighing dish, dark place, 25° C. and 84% RH); settings: for Appearance / Water content / Purity: 25° C. and 84% RH, dark, open; for Purity: HPLC
Method: as §1, with “(Sigma-Aldrich) The” for “(Sigma-Aldrich) Compound 1 obtained by a method similar to the method described in Example 1 (two kinds of lots), the”, “the monohydrobromide obtained by” for “the dihydrochloride, and mixtures of”, “the method described in Example 4,” for “the monohydrochloride”, “dihydrochloride as a control” for “dihydrochloride at ratios of 9:1, 8:2, 6:4, 4:6 and 2:8”, “of” for “of each”, “40 mg each,” for “40 mg,”

[5] = after storage at 60° C. for 4 weeks
[6] = after storage at 25° C. and 84% RH for 4 weeks

With CN[C@H]1CCN(S(=O)(=O)c2cccc3cncc(Cl)c23)C1.Cl [Monohydrochloride, (S)-1-(4-chloro-5-isoquinolinesulfonyl)-3-(methylamino)pyrrolidine monohydrochloride] the Appearance ([1]; after 2 weeks) was “White”, the Water content ([1]; after 2 weeks) was 0.1% and the Appearance ([1]; before storage) was “White”. The Water content ([1]; before storage) was 0.0%, the Purity ([1]; after 2 weeks) was 100.0% and the Purity ([1]; before storage) was 100.0%. The “Hygroscopicity compared with Compound 1 (free base) and mixtures” value ([1]; Test Example 11, 25° C. and 84% RH) was “hygroscopicity lower than any of Compound 1 (free base) and mixtures of the monohydrochloride and the dihydrochloride”, the Water content [2] was 0.20% and the Appearance ([3]; after 2 weeks) was “White”. For the same compound, the Water content ([3]; after 2 weeks) was 0.06%, the Appearance ([3]; after 4 weeks) was “White” and the Water content ([3]; after 4 weeks) was 0.08%. For the same compound, the Appearance ([3]; before storage) was “White”, the Water content ([3]; before storage) was 0.20% and the Purity ([3]; after 2 weeks) was 99.9%. The Purity ([3]; after 4 weeks) was 99.7%, the Purity ([3]; before storage) was 99.4% and the “Thermal stability compared with the dihydrochloride” value ([3]; Test Example 9, 60° C.) was “more satisfactory thermal stability”. For the same compound, the Change of appearance [3, 5] was “no change of appearance”, the Degradation of purity [3, 5] was “no degradation of purity” and the Appearance ([4]; after 2 weeks) was “White”. The Water content ([4]; after 2 weeks) was 0.23%, the Appearance ([4]; after 4 weeks) was “White” and the Water content ([4]; after 4 weeks) was 0.26%. For the same compound, the Appearance ([4]; before storage) was “White”, the Water content ([4]; before storage) was 0.20% and the Purity ([4]; after 2 weeks) was 99.8%. For the same compound, the Purity ([4]; after 4 weeks) was 99.6%, the Purity ([4]; before storage) was 99.4% and the “Hygroscopicity compared with the dihydrochloride” value ([4]; Test Example 10, 25° C. and 84% RH) was “remarkably lower hygroscopicity”. The Change of appearance [4, 6] was “no change of appearance”, the Degradation of purity [4, 6] was “no degradation of purity” and the “Increase of water content” value [4, 6] was “no substantial increase of water content”.
